Source: US20010056085A1, “Methods of using vesicant drug formulations” (priority 1996, published 2001)
Where two headings read alike, the source gives them in different places.

Assay: Half-life of ADR destruction by UVA light in the presence of test compounds (decrease in absorbance at 480 nm)
Type: physicochemical
[1] = UVA light, 100 μM test compound with 0.5 μM riboflavin
[2] = UVA light, 100 μM test compound alone

Molecule | Half-Life of ADR Destruction, 100 μM Test Compound and 0.5 μM Riboflavin [1] | Half-Life of ADR Destruction, 100 μM Test Compound [2] | also measured
O=S(O)c1ccccc1 [Benzenesulfinic acid] | 15.8 min | – | –
O=S(=O)(O)c1cc(O)ccc1O [2,5-Dihydroxy Benzenesulfonic acid] | 25.1 min | – | –
O=C(O)C1=CC=C2N=NN=C2C1 [5-Benzotriazole-carboxylic acid] | 75.3 min | – | –
O=S(=O)(O)c1ccccc1 [Benzenesulfonic acid] | 50.2 min | – | –
COc1cc(OC)c2ccc(=O)oc2c1 [5,7-Dimethoxycoumarin] | 23.2 min | 27.4 min | –
Nc1cccc(F)c1 [3-Fluoro Aniline] | 5.90 min | – | –
Nc1ccc(OC(F)(F)F)cc1 [4-(Trifluoromethyoxy) Aniline] | – | – | Half-Life of ADR Destruction, 100 μM Test Compound and 0.5 μM Riboflavin: 43.0 min
Nc1ccc(CC(=O)O)cc1 [4-Amino Phenylacetic acid] | 4.63 min | 50.2 min | –
CC(=O)c1cccn1C [2-Acetyl-1-methyl Pyrrole] | 50.2 min | – | –
Nc1ccc(Cc2ccccc2)cc1 [4-Aminodiphenylmethane] | 5.57 min | 43.0 min | –
O=C1c2ccccc2C(=O)c2cnccc21 [Benz[γ]isoquinoline-5,10-dione] | <0.261 min | <0.355 min | –
Nc1cc2ccccc2cc1C(=O)O [3-Atninonaphthalene-2-carboxylic acid] | 50.2 min | 75.3 min | –
O=C(O)CCC(=O)c1cccc2ccccc12 [γ-Oxo-1-napthalenebutyric acid] | 8.60 min | 10.0 min | –
Dimethyl-2,3-indolecarboxylic acid | 12.0 min | – | –
COc1ccc(C(=O)c2cccs2)cc1 [2-(4-Methoxybenzoyl)-thiophene] | 8.36 min | 9.41 min | –
CN(C)c1ccc(CC(=O)O)cc1 [4-(Dimethylamino) Phenylacetic acid] | 100.3 min | – | –
O=Cc1c[nH]c2ccccc12 [Indole-3-carboxaldehyde] | 30.1 min | – | –
COc1ccc2[nH]c3ccccc3c(=O)c2c1 [2-Methoxy-9(10H) Acridone] | – | – | Half-Life of ADR Destruction, 100 μM Test Compound: 23.2 min; Half-Life of ADR Destruction, 100 μM Test Compound and 0.5 μM Riboflavin: 16.7 min
COc1ccc(CCC(=O)O)cc1 [3-(4-Methoxyphenyl) Propionic Acid] | 12.5 min | 75.3 min | –
COc1ccc(CC(=O)O)cc1 [4-Methoxy Phenylacetic Acid] | 30.1 min | 50.2 min | –
OCCc1ccccc1 [Phenylethyl Alcohol] | – | 43.0 min | –
O=c1c2ccccc2oc2ncccc12 [1-Azaxanthrone] | 2.60 min | 2.87 min | –
Nc1ccc(S(=O)(=O)O)cc1 [4-Amino Benzenesulfonic acid] | 18.8 min | – | –

Molecule | Half-Life of ADR Destruction, 100 μM Test Compound and 0.5 μM Riboflavin [1] | Half-Life of ADR Destruction, 100 μM Test Compound [2] | also measured
Cn1c(=O)c2[nH]c(=O)[nH]c2n(C)c1=O [1,3-Dimethyl Uric acid] | 21.5 min | 75.3 min | –
c1ccc2occc2c1 [Benzofuran] | 75.3 min | – | –
C[S+](C)[O-] [Dimethylsulfoxide] | – | – | Half-Life of ADR Destruction, Test Compound (UVA light, dimethylsulfoxide 4% = 0.56 M alone): 33.5 min; Half-Life of ADR Destruction, Test Compound and 0.5 μM Riboflavin (UVA light, dimethylsulfoxide 4% = 0.56 M with 0.5 μM riboflavin): 27.4 min; Half-Life of ADR Destruction, Test Compound and 0.5 μM Riboflavin (UVA light, dimethylsulfoxide 40% - 5.6 M with 0.5 μM riboflavin): 10.4 min
O=C(c1ccccc1)c1ccc[nH]1 [2-Benzoyl pyrrole] | 33.5 min | 50.2 min | –
Nc1cc(C[C@H](N)C(=O)O)ccc1O [3-Amino-4-Hydroxy Phenylalanine] | 100.3 min | – | –
NCc1ccc(O)c(O)c1 [3,4-Dihydroxy Benzylamine] | 150.3 min | – | –
COc1ccc2[nH]cc(C[C@H](N)C(=O)O)c2c1 [5-Methoxy-tryptophan] | 21.5 min | – | –
Nc1ccc2ccccc2c1 [2-Aminonaplithalene] | – | – | Half-Life of ADR Destruction, 100 μM Test Compound and 0.5 μM Riboflavin: 20.1 min
O=C(O)CCCc1c[nH]c2ccccc12 [3-Indolebutyric acid] | 10.0 min | – | –
CC(C)(C)c1cc(C(C)(C)C)c(N)c(C(C)(C)C)c1 [2,4,6-Tri-tert-butyl Aniline] | 43.0 min | – | –
Nc1cccc(Oc2ccccc2)c1 [3-Phenoxyaniline] | 12.5 min | 43.0 min | –
OCCc1ccc(O)cc1 [4-Hydroxy Phenylethyl Alcohol] | 50.2 min | – | –
Cc1c(N)cccc1CO [3-Amino-2-Methyl Benzyl Alcohol] | 33.5 min | – | –
O=C(O)Cc1ccc(-c2ccccc2)cc1 [4-Phenyl Phenylacetic Acid] | 27.4 min | 43.0 min | –
O=c1nc2[nH]c3ccccc3nc-2c(=O)[nH]1 [Alloxazine] | 1.89 min | 2.21 min | –
Nc1ccc(S(N)(=O)=O)cc1 [4-Amino Benzenesulfonamide] | – | – | Half-Life of ADR Destruction, 100 μM Test Compound and 0.5 μM Riboflavin: 25.1 min
CC(C(=O)O)c1ccc(N2Cc3ccccc3C2=O)cc1 (stereo not drawn) [Indoprofen, 4-(1-Isoindolinone)-α-Methyl Phenylacetic Acid, reference compound] | 25.1 min | 75.3 min | –
NC(=O)Cc1c[nH]c2ccccc12 [Indole-3-acetamide] | 11.2 min | – | –
CCC(=O)c1ccccc1 [Propriophenone] | – | – | Half-Life of ADR Destruction, 100 μM Test Compound: 43.0 min
Nc1c(-c2ccccc2)cc(-c2ccccc2)cc1-c1ccccc1 [2,4,6-Triphenylaniline] | 33.5 min | – | –
Cc1ccc2[nH]cc(C[C@H](N)C(=O)O)c2c1 [5-Methyl-tryptophan] | 23.2 min | – | –
O=C(O)c1cccc(C(=O)c2ccccc2)c1 [3-Benzophenone-carboxylic acid] | – | – | Half-Life of ADR Destruction, 100 μM Test Compound: 20.1 min; Half-Life of ADR Destruction, 100 μM Test Compound and 0.5 μM Riboflavin: 15.8 min
